Data published in patent US12600705B2, “Heat shock protein modulators and anti-Huntington disease therapeutic agents” (UNIVERSITY OF PITTSBURGH-OF THE COMMONWEALTH SYSTEM OF …, priority 2020, dated 2026).

Experiments:
[1] = test system: HDAC 1-3; assay: HDAC 1-3 assay (BioVision kit, HeLa nuclear extract); settings: Compound tested at 1 uM
Protocol: For HDAC 1-3 assays, kits from BioVision Incorporated (https://www.biovision.com/) were used and their recommended protocols followed. […] Each compound was dissolved in DMSO to generate a 100 μM stock solution, then diluted using HPLC-grade water to prepare 10 μM, 2 μM, and 1 μM solutions. These solutions were used for the assays. […] Assays utilized a BioTek Synergy H1 microplate reader and black Nunc MicroWell 96-well optical-bottom plates with polymer base.
HDAC 1-3: 10 μL of each diluted compound (10 μM) and 40 μL of HPLC-grade water were mixed and added into a well on the plate. […] Then, 50 μL of the reaction mixture was added to each well and the solution was mixed thoroughly. The reaction mixture consisted of 500 μL of 10×HDAC Assay buffer, 100 μL of HeLa nuclear extract, 250 μL of HDAC substrate, and 1.65 mL of HPLC-grade water. The plate was then warmed in an incubator at 37° C. with a rocker platform and was incubated for 30 min. After the incubation, 10 μL of Lysine Developer solution was added to each well. The plate was kept in the incubator for an additional 30 min. Afterwards, the plate was analyzed using a BioTek Synergy H1 microplate reader, taking two independent readings per well that were subsequently averaged.

[2] = target: T1, HDAC 7 (Homo sapiens, UniProt Q8WUI4); assay: HDAC 7 assay (BPS Bioscience kit)
T1 sequence (Q8WUI4 1-952): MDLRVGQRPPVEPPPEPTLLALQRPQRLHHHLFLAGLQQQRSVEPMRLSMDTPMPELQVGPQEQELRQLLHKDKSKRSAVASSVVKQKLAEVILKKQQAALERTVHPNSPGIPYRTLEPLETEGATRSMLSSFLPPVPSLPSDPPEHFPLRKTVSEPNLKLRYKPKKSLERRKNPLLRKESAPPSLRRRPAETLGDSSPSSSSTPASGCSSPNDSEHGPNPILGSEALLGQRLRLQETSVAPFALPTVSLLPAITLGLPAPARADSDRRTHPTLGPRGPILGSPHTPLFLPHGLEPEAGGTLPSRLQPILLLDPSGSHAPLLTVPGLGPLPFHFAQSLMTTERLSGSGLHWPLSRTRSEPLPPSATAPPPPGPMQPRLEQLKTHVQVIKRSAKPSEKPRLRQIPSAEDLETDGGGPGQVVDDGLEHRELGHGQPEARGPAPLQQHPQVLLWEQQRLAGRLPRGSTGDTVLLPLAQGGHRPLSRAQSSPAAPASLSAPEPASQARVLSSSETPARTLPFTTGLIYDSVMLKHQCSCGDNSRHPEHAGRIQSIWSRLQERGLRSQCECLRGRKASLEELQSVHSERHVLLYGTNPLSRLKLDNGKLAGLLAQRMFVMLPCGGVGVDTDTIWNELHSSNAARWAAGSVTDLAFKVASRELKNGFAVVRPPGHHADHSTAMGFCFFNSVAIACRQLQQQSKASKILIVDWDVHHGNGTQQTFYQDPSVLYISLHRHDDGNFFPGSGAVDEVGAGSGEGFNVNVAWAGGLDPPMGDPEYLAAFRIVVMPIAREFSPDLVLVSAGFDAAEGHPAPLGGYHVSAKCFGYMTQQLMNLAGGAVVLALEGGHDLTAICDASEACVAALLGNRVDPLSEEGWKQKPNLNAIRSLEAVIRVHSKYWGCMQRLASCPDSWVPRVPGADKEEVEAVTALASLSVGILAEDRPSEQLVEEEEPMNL
Protocol: (§1) For HDAC 4-8 assays, kits from BPS Bioscience (https://bpsbioscience.com/) were used and their recommended protocols followed. […] Each compound was dissolved in DMSO to generate a 100 μM stock solution, then diluted using HPLC-grade water to prepare 10 μM, 2 μM, and 1 μM solutions. These solutions were used for the assays. […] Assays utilized a BioTek Synergy H1 microplate reader and black Nunc MicroWell 96-well optical-bottom plates with polymer base.
(§2) HDAC 4 (and, by analogy, HDAC 5, 6, 7, and 8): 40 μL of the parent solution was added to each well on the plate. The parent solution was prepared from a fluorogenic HDAC substrate, a 1 mg/mL solution of bovine serum albumin (BSA) in water, and HDAC assay buffer. 5 μL of the inhibitor buffer (10% DMSO in water) was added to the wells designated as “Blank” and “Positive Control” (no inhibitor). 5 μL of the test compound was added to each well designated as “Test Inhibitor”. Different concentrations of TSA (for a standard curve) was added to each well designated as “Standard.” 5 μL of HDAC assay buffer was added to the “Blank” wells. […] Afterwards, the plate was analyzed using a BioTek Synergy H1 microplate reader, taking two independent readings per well that were subsequently averaged.

[3] = target: HDAC 4 human recombinant enzyme (Homo sapiens, UniProt P56524); assay: HDAC 4 assay (BPS Bioscience kit); settings: Compound tested at 1 uM
Protocol: as §1, §2

[4] = target: T2, HDAC 8 (Homo sapiens, UniProt Q9BY41); assay: HDAC 8 assay (BPS Bioscience kit); settings: footnotes a,c: tested at 1 uM; 100 nM; average of 2 independent measurements
T2 sequence (Q9BY41 1-377): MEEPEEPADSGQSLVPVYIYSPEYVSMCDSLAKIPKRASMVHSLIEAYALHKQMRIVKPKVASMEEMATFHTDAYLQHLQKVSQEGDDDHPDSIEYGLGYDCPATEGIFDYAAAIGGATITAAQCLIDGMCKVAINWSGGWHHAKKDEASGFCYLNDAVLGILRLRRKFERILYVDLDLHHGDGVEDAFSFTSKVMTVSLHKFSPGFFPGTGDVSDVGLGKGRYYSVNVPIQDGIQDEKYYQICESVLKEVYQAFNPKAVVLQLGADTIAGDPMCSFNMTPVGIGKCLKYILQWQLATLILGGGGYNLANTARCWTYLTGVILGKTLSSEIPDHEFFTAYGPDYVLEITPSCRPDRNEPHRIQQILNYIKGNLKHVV
Protocol: as §1
(§3) HDAC 4 (and, by analogy, HDAC 5, 6, 7, and 8): 40 μL of the parent solution was added to each well on the plate. The parent solution was prepared from a fluorogenic HDAC substrate, a 1 mg/mL solution of bovine serum albumin (BSA) in water, and HDAC assay buffer. 5 μL of the inhibitor buffer (10% DMSO in water) was added to the wells designated as “Blank” and “Positive Control” (no inhibitor). 5 μL of the test compound was added to each well designated as “Test Inhibitor”. Different concentrations of TSA (for a standard curve) was added to each well designated as “Standard.” 5 μL of HDAC assay buffer was added to the “Blank” wells. Then, 5 μL of HDAC 4 human recombinant enzyme was added to the wells designated as “Positive Control”, “Test Inhibitor”, and “Standard.” The plate was then warmed in an incubator at 37° C. with a rocker platform for 30 min After the incubation, 50 μL of 2×HDAC Developer solution was added to each well. The plate was returned to the incubator and was shaken on the rocker for an additional 15 min. at room temperature. Afterwards, the plate was analyzed using a BioTek Synergy H1 microplate reader, taking two independent readings per well that were subsequently averaged.

[5] = target: HDAC 5 (Homo sapiens, UniProt Q9UQL6); assay: HDAC 5 assay (BPS Bioscience kit)
Protocol: as §1, §2

[6] = test system: HEK293 cells that express an HTT exon containing 17 glutamine repeats (HTT17Q-mCherry); assay: Huntington's Disease (HD) model: protein aggregates (puncta) per cell in HEK293H cells transfected with HTT17Q-mCherry; settings: for Effect on aggregate suppression compared to the MAL1-271 positive control: Example 1, FIG. 2, 10 μM compound, 6 h; for Activity in cell based HD assay (active analogs of Hsp70 agonist): summary of Example 1
Protocol: Cells were stained for confocal microscope imaging with 4′,6-diamidino-2-phenylindole (DAPI), a fluorescent dye with high affinity to adenine-thymine rich DNA regions. A bright spot detection tool was used to identify and quantify the number of protein aggregates (“dots”) per cell.
Biological Assays: For HD assays, HEK293H cells were grown in DMEM (Sigma-Aldrich, Saint Louis, MO) supplemented with 10% fetal bovine serum (GE Healthcare Hyclone) and 1% penicillin/streptomycin (Thermo Fisher Scientific, Waltham, MA) at 37° C. and at a 5% CO2 atmosphere. Cells were seeded at 250,000 cells/plate in Poly-D-Lysine Coated 35 mm MatTek dishes (P35GC-1.5-10-C, MatTek Corporation, Ashland, MA). After 24 h growth, a total of 4 μg of mCherry tagged-polyglutamine-expanded (17-polyQ-expanded) huntingtin (HTT) was introduced using Lipofectamine 2000 (Invitrogen, Thermo Fisher Scientific) according to the manufacturer's instructions. […] The following day, cells were treated with vehicle (DMSO) as control or with 10 μM of the examined compounds for 6 h. The cells were then washed with PBS and fixed in 4% formaldehyde for 15 min at room temperature. Finally, cells were stained with DAPI (1:250 in PBS) for 4 h and maintained in PBS for confocal microscope imaging.
Complete volumes of cells were acquired at 0.5-μm steps, and volumes were reconstructed and analyzed using Nikon's NIS-Elements software (Nikon Instrument, Melville, NY). Bright spot detection tool was used to identify and quantify the number of protein aggregates (“dots”) per cell. A non-parametric Kruskal-Wallis test analysis was performed using Prism software (GraphPad, La Jolla, CA). Statistically significant differences between control (DMSO) and compound treated samples are indicated by asterisks in figure. To obtain representative images from this experiment, maximum intensity projections of 0.5-μm steps though the entire cell were generated using Nikon's NIS-Elements software.
Cells were stained for confocal microscope imaging with 4′,6-diamidino-2-phenylindole (DAPI) and bright spot detection tool was used to identify and quantify the number of protein aggregates (“dots”) per cell.

[7] = target: T3, HDAC 6 (Homo sapiens, UniProt Q9UBN7); assay: HDAC 6 assay (BPS Bioscience kit); settings: footnotes b,c: tested at 200 nM; 100 nM; variable, average of 2 independent measurements
T3 sequence (Q9UBN7 1-1215): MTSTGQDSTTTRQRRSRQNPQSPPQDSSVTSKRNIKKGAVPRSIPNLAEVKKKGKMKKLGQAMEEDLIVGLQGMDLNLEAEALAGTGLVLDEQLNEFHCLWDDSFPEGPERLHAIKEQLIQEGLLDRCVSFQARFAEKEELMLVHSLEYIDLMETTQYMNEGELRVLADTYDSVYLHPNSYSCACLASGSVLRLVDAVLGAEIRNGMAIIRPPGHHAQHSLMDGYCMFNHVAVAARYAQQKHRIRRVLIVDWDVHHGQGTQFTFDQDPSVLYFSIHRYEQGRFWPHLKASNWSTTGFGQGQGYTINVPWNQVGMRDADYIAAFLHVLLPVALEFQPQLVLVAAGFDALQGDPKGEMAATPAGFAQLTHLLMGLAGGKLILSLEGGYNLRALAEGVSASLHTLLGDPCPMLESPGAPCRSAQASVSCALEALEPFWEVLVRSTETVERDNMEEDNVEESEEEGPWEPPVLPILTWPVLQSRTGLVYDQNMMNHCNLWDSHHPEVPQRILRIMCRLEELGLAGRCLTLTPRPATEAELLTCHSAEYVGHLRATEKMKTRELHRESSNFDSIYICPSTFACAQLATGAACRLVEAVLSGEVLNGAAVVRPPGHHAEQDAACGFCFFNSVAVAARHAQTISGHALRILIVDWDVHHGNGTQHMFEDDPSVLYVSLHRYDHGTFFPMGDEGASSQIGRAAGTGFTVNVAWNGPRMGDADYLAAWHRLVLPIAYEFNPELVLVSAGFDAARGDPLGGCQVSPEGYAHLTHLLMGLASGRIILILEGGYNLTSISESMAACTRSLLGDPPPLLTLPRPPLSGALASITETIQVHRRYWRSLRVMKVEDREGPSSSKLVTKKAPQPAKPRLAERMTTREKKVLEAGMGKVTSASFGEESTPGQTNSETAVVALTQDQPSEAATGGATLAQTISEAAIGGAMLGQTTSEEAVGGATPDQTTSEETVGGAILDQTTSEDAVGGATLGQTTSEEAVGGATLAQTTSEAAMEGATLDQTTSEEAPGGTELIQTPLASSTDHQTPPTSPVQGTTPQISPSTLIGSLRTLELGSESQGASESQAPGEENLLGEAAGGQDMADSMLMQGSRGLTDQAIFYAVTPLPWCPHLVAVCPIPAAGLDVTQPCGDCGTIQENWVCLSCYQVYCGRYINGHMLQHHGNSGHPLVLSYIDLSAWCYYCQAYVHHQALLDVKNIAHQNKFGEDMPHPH
Protocol: as §1, §3

HDAC 4 human recombinant enzyme, sequence (P56524 whole entry): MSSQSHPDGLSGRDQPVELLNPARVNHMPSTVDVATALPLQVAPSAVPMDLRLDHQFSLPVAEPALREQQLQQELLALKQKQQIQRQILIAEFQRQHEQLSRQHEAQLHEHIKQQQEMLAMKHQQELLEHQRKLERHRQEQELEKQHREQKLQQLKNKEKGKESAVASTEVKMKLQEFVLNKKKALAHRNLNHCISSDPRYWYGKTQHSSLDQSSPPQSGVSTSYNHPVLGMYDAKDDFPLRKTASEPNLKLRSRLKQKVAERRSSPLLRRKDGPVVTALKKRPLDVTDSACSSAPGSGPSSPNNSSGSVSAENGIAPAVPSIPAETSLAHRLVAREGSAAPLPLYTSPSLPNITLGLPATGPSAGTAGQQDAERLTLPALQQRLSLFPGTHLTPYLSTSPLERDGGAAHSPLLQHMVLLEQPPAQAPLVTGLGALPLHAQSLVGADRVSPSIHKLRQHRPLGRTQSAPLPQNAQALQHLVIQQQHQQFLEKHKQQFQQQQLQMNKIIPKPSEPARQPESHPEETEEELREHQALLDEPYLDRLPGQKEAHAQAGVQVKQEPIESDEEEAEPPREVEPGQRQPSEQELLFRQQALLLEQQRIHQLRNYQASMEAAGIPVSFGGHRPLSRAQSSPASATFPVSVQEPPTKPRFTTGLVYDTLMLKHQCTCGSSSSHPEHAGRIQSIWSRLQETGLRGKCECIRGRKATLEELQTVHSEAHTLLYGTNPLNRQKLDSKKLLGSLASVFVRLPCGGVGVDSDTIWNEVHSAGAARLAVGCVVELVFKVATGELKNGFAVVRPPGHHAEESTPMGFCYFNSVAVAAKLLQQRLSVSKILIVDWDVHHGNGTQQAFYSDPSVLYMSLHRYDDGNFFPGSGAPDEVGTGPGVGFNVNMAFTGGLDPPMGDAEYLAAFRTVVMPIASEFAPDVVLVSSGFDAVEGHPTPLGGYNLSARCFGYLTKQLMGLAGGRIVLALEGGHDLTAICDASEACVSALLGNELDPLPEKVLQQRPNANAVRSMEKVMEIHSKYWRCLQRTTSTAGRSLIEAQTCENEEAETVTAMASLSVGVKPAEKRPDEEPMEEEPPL
HDAC 5, sequence (Q9UQL6 whole entry): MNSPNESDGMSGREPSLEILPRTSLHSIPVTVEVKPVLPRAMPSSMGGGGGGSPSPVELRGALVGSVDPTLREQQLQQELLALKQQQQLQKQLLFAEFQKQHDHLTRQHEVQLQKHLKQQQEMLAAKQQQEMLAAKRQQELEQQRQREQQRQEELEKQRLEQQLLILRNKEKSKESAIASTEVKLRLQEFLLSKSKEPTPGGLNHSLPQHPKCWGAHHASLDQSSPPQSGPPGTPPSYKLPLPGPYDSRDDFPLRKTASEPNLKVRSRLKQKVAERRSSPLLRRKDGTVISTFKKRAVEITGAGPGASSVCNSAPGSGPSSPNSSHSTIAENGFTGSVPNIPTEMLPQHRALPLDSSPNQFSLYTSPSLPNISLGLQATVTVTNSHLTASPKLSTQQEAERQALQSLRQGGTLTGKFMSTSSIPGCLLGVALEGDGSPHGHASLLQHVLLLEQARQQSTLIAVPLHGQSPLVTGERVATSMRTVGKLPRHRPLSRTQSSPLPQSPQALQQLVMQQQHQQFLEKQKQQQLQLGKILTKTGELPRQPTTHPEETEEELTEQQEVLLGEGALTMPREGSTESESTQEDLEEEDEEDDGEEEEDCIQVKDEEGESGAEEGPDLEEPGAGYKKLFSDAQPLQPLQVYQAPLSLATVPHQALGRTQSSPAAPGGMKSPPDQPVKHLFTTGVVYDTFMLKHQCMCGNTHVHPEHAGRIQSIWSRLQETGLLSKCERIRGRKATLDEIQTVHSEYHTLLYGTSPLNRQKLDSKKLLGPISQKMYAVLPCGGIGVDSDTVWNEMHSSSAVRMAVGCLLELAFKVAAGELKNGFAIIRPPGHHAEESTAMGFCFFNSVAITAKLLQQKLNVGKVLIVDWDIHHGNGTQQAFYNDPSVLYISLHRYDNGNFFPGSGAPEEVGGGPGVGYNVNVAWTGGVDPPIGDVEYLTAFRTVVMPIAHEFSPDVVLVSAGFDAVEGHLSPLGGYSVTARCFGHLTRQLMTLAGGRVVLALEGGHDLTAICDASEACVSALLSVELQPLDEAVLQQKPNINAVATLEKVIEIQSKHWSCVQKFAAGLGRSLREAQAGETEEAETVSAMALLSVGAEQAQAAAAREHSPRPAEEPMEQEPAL

Percent inhibition HDAC 7 ([2]; Compound tested at 100 nM) | Percent inhibition HDAC 4 [3] | Percent inhibition HDAC 8 [4] [%^e] | inhibition at 0.2 µM ([5]; read-out: Percent inhibition HDAC 5) [%] | Percent inhibition HDAC 6 [7] | inhibition at 0.1 µM ([2]; read-out: Percent inhibition HDAC 7) [%] | Percent inhibition HDAC 5 ([5]; Compound tested at 200 nM) | Structure (SMILES) | Percent inhibition HDAC 1-3 [1] | Effect on aggregate suppression compared to the MAL1-271 positive control [6] | Activity in cell based HD assay (active analogs of Hsp70 agonist) [6]
NIA | NIA | 37 | 9 | 40%^d | – | – | CCOC(=O)C1=CNS(=O)(=O)N(Cc2ccc(C(=O)O)cc2)C1c1ccc(Cl)cc1Cl (stereo not shown) [Compound 10i, 4-((3-(2,4-Dichlorophenyl)-4-(ethoxycarbonyl)-1,1-dioxido-3,6-dihydro-2H-1,2,6-thiadiazin-2-yl)methyl)benzoic acid] | NIA | equally effective | active
– | NIA | 60 | – | NIA | 1 | NIA | COC(=O)CCCN1C=C(C(=O)O)C(c2ccc(Cl)cc2Cl)NS1(=O)=O (stereo not shown) [Compound 10g, 3-(2,4-Dichlorophenyl)-6-(4-methoxy-4-oxobutyl)-3,6-dihydro-2H-1,2,6-thiadiazine-4-carboxylic acid 1,1-dioxide] | NIA | equally effective | active
